{
  "source": "patent EP0515141A1",
  "about": "“Novel process for the preparation of 8A-aza-8A-homoerythromycin cyclic lactams” (MERCK & CO. INC., priority 1991, dated 1992)",
  "experiment_in_all_cases": "liquid turbidimetric microtiter MIC assay",
  "type_in_all_cases": "cell-based",
  "key": {"[1]": {"system": "Streptococcus agalactiae CL 1343", "conditions": "CL1343, brain heart infusion broth", "text": "(§1) The antibacterial activities of compound (III) against a panel of aerobic Gram positive and negative bacteria is shown in the following Table. The assay employs a liquid turbidimetric microtiter method for the determination of the minimum inhibitory concentration (MIC) in brain heart infusion broth. […] The MIC is generally not an absolute value but rather a concentration ranged that falls within a two-fold dilution limit. Generally twelve two-fold dilutions of the test compound are employed with the initial concentration set at 128 mcg/ml."}, "[2]": {"system": "Enterococcus faecium MB 5416", "conditions": "MB5416, brain heart infusion broth", "text": "as §1"}, "[3]": {"system": "Staphylococcus epidermidis MB 5414", "conditions": "MB5414, brain heart infusion broth", "text": "as §1"}, "Escherichia coli MB 4926": {"system": "Escherichia coli MB 4926", "conditions": "MB4926, brain heart infusion broth", "text": "as §1"}, "Escherichia coli MB 2884": {"system": "Escherichia coli MB 2884", "conditions": "MB2884, brain heart infusion broth", "text": "as §1"}, "[4]": {"system": "Yersinia enterocoltica CL 1598", "conditions": "CL1598, brain heart infusion broth", "text": "as §1"}, "[5]": {"system": "Staphylococcus aureus MB 2865", "conditions": "MB2865, brain heart infusion broth", "text": "as §1"}, "[6]": {"system": "Streptococcus pneumoniae CL 2883", "conditions": "CL2883, brain heart infusion broth", "text": "as §1"}, "[7]": {"system": "Streptococcus pyogenes MB 2874", "conditions": "MB2874, brain heart infusion broth", "text": "as §1"}, "[8]": {"system": "Pseudomonas stutzeri MB 1231", "conditions": "Stutzerimonas stutzeri, MB1231, brain heart infusion broth", "text": "as §1"}, "[9]": {"system": "Streptococcus pyogenes MB 5406", "conditions": "MB5406, brain heart infusion broth", "text": "as §1"}, "[10]": {"system": "Enterococcus faecalis MB 5407", "conditions": "MB5407, brain heart infusion broth", "text": "as §1"}, "[11]": {"system": "Klebsiella pneumoniae MB 4005", "conditions": "MB4005, brain heart infusion broth", "text": "as §1"}, "[12]": {"system": "Steptococcus viridans CL 2943", "conditions": "brain heart infusion broth", "text": "as §1"}, "[13]": {"system": "Staphylococcus haemolyticus MB 5412", "conditions": "MB5412, brain heart infusion broth", "text": "as §1"}},
  "data": [
    {"smiles": "CC[C@H]1OC(=O)[C@H](C)[C@@H](O[C@H]2C[C@@](C)(OC)[C@@H](O)[C@H](C)O2)[C@H](C)[C@@H](O[C@@H]2O[C@H](C)C[C@H](N(C)C)[C@H]2O)[C@](C)(O)C[C@@H](C)NC(=O)[C@H](C)[C@@H](O)[C@]1(C)O", "note": "[(III), 8a-aza-8a-homoerythromycin A]", "values": [
      {"measurement": "MIC", "setting": "[1]", "result": 0.25, "unit": "µg/mL"},
      {"measurement": "MIC", "setting": "[2]", "result": "≤ 0.06", "unit": "µg/mL"},
      {"measurement": "MIC", "setting": "[3]", "result": 2, "unit": "µg/mL"},
      {"measurement": "MIC", "setting": "Escherichia coli MB 4926", "result": 4, "unit": "µg/mL"},
      {"measurement": "MIC", "setting": "Escherichia coli MB 2884", "result": 32, "unit": "µg/mL"},
      {"measurement": "MIC", "setting": "[4]", "result": 64, "unit": "µg/mL"},
      {"measurement": "MIC", "setting": "[5]", "result": 1, "unit": "µg/mL"},
      {"measurement": "MIC", "setting": "[6]", "result": "≤ 0.06", "unit": "µg/mL"},
      {"measurement": "MIC", "setting": "[7]", "result": "≤ 0.06", "unit": "µg/mL"},
      {"measurement": "MIC", "setting": "[8]", "result": 0.12, "unit": "µg/mL"},
      {"measurement": "MIC", "setting": "[9]", "result": 128, "unit": "µg/mL"},
      {"measurement": "MIC", "setting": "[10]", "result": 16, "unit": "µg/mL"},
      {"measurement": "MIC", "setting": "[11]", "result": 64, "unit": "µg/mL"},
      {"measurement": "MIC", "setting": "[12]", "result": 4, "unit": "µg/mL"},
      {"measurement": "MIC", "setting": "[13]", "result": 2, "unit": "µg/mL"}
    ]}
  ]
}
